Experiment [1] has as its target T1, LMP2/β1i (Homo sapiens, UniProt P28065+P40306). Briefly: Proteasome activity assay, purified 20S proteasome, Ac-PAL-AMC. The experiment is classed as biochemical. Further details: purchased R&D Systems. As for the experimental part: (§1) Purified 20S human proteasomes (CP and IP, R&D Systems) were used to assess the in vitro inhibition of proteasome catalytic activity by LMP2 inhibitors. […] Reactions were initiated by the addition of fluorogenic substrates containing the AMC (7-amino-4-methylcoumarin) group. Specifically, the following substrates were used: Suc-LLVY-AMC (CT-L activity, 100 μM), Ac-PAL-AMC (LMP2, 100 μM), Ac-WLA-AMC (β5, 20 μM), Ac-nLPnLD-AMC (β1,100 μM), Ac-RLR-AMC (β2/2i, 20 μM), and Ac-ANW-AMC (β5i, 100 μM). The fluorescence of liberated AMC was measured over a period of 90 min at 360 and 460 nm on a SpectraMax M5 fluorescence plate reader (Molecular Devices). For the proteasome activity of brain tissues isolated from AD mice, tissues were homogenized in RIPA buffer (50 mM Tris Cl, pH 7.4, 150 mM NaCl, 5 mM EDTA, 1% Nonidet P-40, 1% sodium deoxycholate, 0.1% SDS, 1% aprotinin, 50 mM NaF) and sonicated. Samples were centrifuged for 40 min at 14,000×g (4° C.). Protein concentration was determined using the Bradford Assay according to the manufacturer's protocol. Finally, samples were loaded onto a 96-well plate followed by the addition of the substrate (Ac-PAL-AMC) at 37° C. Fluorescence was recorded for 90 min using a Synergy-HT (Bio Tek) plate reader.

Experiment [2] addresses T1, LMP2/β1i. Briefly: Proteasome inhibitory activity, subunit-specific cell lysate IC50, LMP2. Format: biochemical. Details: Subunit-Specific Cell lysate IC50 (μM); endogenous in cells. To be noted: read-out: Subunit-Specific Cell lysate IC50, LMP2 (β1i).
The test system of experiment [3] is APPsw transgenic mouse (Tg2576) and LPS-induced mice (ICR strain). Briefly: Morris water maze test in AD mouse models. The experiment is classed as in vivo. To be noted: FIG. 12A-12D. The protocol:
These two compounds were used to investigate the impacts of LMP2 inhibition on cognitive deficits in two animal models of human Alzheimer's disease (AD). In these AD models, AD develops by Aβ deposition (APPsw transgenic mouse) or lipopolysaccharide (LPS)-induced neuroinflammation. For the APPsw transgenic model, also known as Tg2576, 10-month old APPsw mice were treated i.p. with LMP2 inhibitors twice a week for 3 weeks. […] Once treatments were finished, Morris water maze test was performed. All mice were trained for three times a day for 5 days before the test. The escape latency and distance traveled were recorded on a daily-basis over a 5-day period. […] This supports that the efficacy of LMP2 inhibitors is mediated through LMP2 inhibition. One day after the completion of Morris water maze test, the ability of mouse to maintain memory was evaluated by probe trials. […] Sequentially, a step-through latency test was performed a day after the probe trial. […]
The learning trials were conducted over 5 days, with 4 trials per day, with three randomized starting points. […] Swimming pattern of each mouse was monitored and recorded by a camera mounted above the center of the pool, and the escape latency, escape distance and swimming speed were assessed by the SMART-LD program (Panlab, Spain). […]

Another experiment concerns the target T2, LMP7/β5i (Homo sapiens, UniProt P20618+P28062).
T2 construct: purchased R&D Systems
Briefly: Proteasome activity assay, purified 20S proteasome, Ac-ANW-AMC. The experiment is classed as biochemical. As for the experimental part:
as §1

A further experiment addresses T3, X/β5 (Homo sapiens, UniProt P20618+P28074).
T3 construct: purchased R&D Systems
Kind of experiment: Proteasome activity assay, purified 20S proteasome, Ac-WLA-AMC. The experiment is classed as biochemical. The protocol: Purified 20S human proteasomes (CP and IP, R&D Systems) were used to assess the in vitro inhibition of proteasome catalytic activity by LMP2 inhibitors. In our 96-well format assays involving a 100 μL total volume, 20S proteasomes (0.5 μg/mL) were incubated with inhibitors or reference compounds (e.g., carfilzomib) in assay buffer (20 mM Tris-HCl, 0.5 mM EDTA, 0.035% SDS) at room temperature for 30 min. Reactions were initiated by the addition of fluorogenic substrates containing the AMC (7-amino-4-methylcoumarin) group. Specifically, the following substrates were used: Suc-LLVY-AMC (CT-L activity, 100 μM), Ac-PAL-AMC (LMP2, 100 μM), Ac-WLA-AMC (β5, 20 μM), Ac-nLPnLD-AMC (β1,100 μM), Ac-RLR-AMC (β2/2i, 20 μM), and Ac-ANW-AMC (β5i, 100 μM). The fluorescence of liberated AMC was measured over a period of 90 min at 360 and 460 nm on a SpectraMax M5 fluorescence plate reader (Molecular Devices). For the proteasome activity of brain tissues isolated from AD mice, tissues were homogenized in RIPA buffer (50 mM Tris Cl, pH 7.4, 150 mM NaCl, 5 mM EDTA, 1% Nonidet P-40, 1% sodium deoxycholate, 0.1% SDS, 1% aprotinin, 50 mM NaF) and sonicated. Samples were centrifuged for 40 min at 14,000×g (4° C.). Protein concentration was determined using the Bradford Assay according to the manufacturer's protocol. […] Fluorescence was recorded for 90 min using a Synergy-HT (Bio Tek) plate reader.

Experiment [4] has as its system Chymotrypsin-like activity (β5/β5i). Briefly: Proteasome inhibitory activity, subunit-specific cell lysate IC50, chymotrypsin-like activity. Format: biochemical.

The structures appear in SMILES notation.

The results in this text go back to patent US20190161516A1, “PROTEASOME INHIBITORS” (University of Kentucky Research Foundation, priority 2017, published 2019).

As usually defined, the IC50 is the concentration that inhibits the measured activity by half. Turning to `CC(C)C[C@H](NC(=O)[C@H](Cc1ccccc1)NC(=O)[C@@H]1CCCN1C(=O)CNC(=O)c1cnccn1)C(=O)[C@@]1(C)CO1` [Analogue 16], the IC50 was 70 nM at LMP2/β1i [1]; 80 nM at LMP2/β1i [2]; > 10 µM on LMP7/β5i; > 10 µM on X/β5; > 10 µM in experiment [4]. For the same compound, the “cognitive deficits in the APPsw mice” value in experiment [3] is “ameliorates cognitive deficits”.
